Laboratory results: patent US20240317826A1, “COMPOSITIONS AND METHODS FOR TREATING AND/OR I[…] AGENT FOR TREATING HIV-1 INFECTIONS” (priority 2021, published 2024)
Where no end group is shown, it is not given here.

What was measured:
[1] = biological target: T1, IN-TAR RNA interaction (Human immunodeficiency virus type 1 group M subtype B, UniProt P04585); assay: Alpha interaction assay: effect of stapled peptides on IN-TAR RNA interaction; type: binding, HIV-1; settings: in vitro
T1 construct: made in house; host or cells: bacteria (E. coli inferred from the pGEX vector)
Description: (§1) FIG. 8A-FIG. 8D show quantitative alpha interaction assay to determine the effect of stapled peptides on the interaction of IN and IN-CTD with INI1 and INI1183-304 or TAR RNA. […] Fixed concentrations of GST-IN, 6His-INI1, and TAR RNA were incubated with increasing concentration of stapled peptides and the interaction was detected as Alpha Score. The IC50 values were determined by fitting the data to a four-parameter dose-response curve using Graph Pad prism. All the graphs represent the average of three independent experiments (Mean+/−SEM).
(§2) AlphaScreen proximity assay to detect the protein-protein and protein-RNA interactions. AlphaScreen assay was carried out using PerkinElmer Alpha-Lisa-6His Acceptor beads (Catalogue #AL128C), Alpha-Screen-GST donor beads (Catalogue #6765300), GST-tagged and His-tagged proteins for protein-protein interactions; and Alpha-Screen Streptavidin donor beads (Catalogue #6760002 S), Alpha-Lisa-GST acceptor beads (Catalogue #AL110C), Biotin-labeled RNA and GST-tagged proteins for protein-RNA interactions. The reaction was carried out according to the manufacturer's protocol in a reaction buffer contacting (25 mM HEPES pH 7.4, 100 mM NaCl (or 500 mM NaCl), 1 mM DTT, 1 mM MgCl2 and BSA 1 mg ml/ml). The mixture of proteins or protein and RNA were incubated for 1 hr at room temperate with shaking in a multi micro-plate shaker and then 20 ag ml/ml accepter beads were added and incubated for additional 1 h with shaking. Finally, 20 ag ml^−1 of donor beads were added and further incubated for 1 hr. The Alpha score readings were measured using Alpha-compatible Envision 2105 multi-plate reader (Perkin-Elmer). All the experiments related to this method were carried out 3 to 5 times and data were analyzed by using Graph Pad Prism 9 version 9.0.0 (GraphPad Software, CA). The RNA sequences used in this assay are listed in the Table 6d and were obtained from Integrated DNA technology.
(§3) These peptides were tested for their ability to disrupt the interaction between IN-INI1 and IN-TAR RNA in vitro.

[2] = biological target: T2, IN-INI1 interaction (Human immunodeficiency virus type 1 group M subtype B, UniProt P04585); assay: Alpha interaction assay: effect of stapled peptides on IN-INI1 interaction; type: binding, HIV-1; settings: in vitro
T2 construct: made in house; host or cells: bacteria (E. coli inferred from the pGEX vector)
Description: as §1, §2, §3

| Substance | IC50, inhibition of IN-TAR RNA interactions [1] | IC50, inhibition of IN-INI1 interactions [2] | inhibition of IN-TAR RNA interactions [1] | inhibition of IN-INI1 interactions [2] |
| --- | --- | --- | --- | --- |
| lys-Leu-Met-Thr-Pro-Glu-R8-Met-Phe-Glu-Ile-Leu-S5-Cys-Asp-Leu-Asn [SP39] | low nanomolar | low nanomolar |  |  |
| lys-Leu-Met-Thr-Pro-Glu-Met-Phe-Ser-Glu-Ile-Leu-Cys-Asp-Leu-Asn (KLMTPEMFSEILCDLN; not fully specified; printed as lys-Leu-Met-Thr-Pro-Glu-Met-Phe-Ser-Glu-Ile-Leu-Cys-Asp-Leu-Asn) [SP80, Linear peptide (without stapling) derived from Alpha helix 1 of INI1 Rpt-1 domain] |  |  | did not inhibit | did not inhibit |
